For this experiment, the system named is MCH receptors. In words: MCH receptor activity class (method not given).
Where [1] appears, read: class by percent of control at 10^-7 M or IC50.
[2] abbreviates: MCH receptor activity class 1-3 (percent of control at 10^-7 M or IC50).
Setting [3] is: activity class 1-3: percent of control at 10^-7 M or IC50.
Where [4] appears, read: activity class per percent of control at 10^-7 M or IC50.
[5] abbreviates: MCH receptor, class by percent of control at 10^-7 M or IC50.
Where [6] appears, read: class by percent of control at 10^−7 M or IC50.

Where two headings read alike, the source gives them in different places.

For the compound `Cc1c(NC(=O)N[C@H]2CC[C@@H](Nc3nccc(N(C)C)n3)CC2)cccc1[N+](=O)[O-]` [compound 2201], the class under setting [1] was 3 (Class 3 The value of percent of control at 10^−7 M was more than 60% or the value of IC50 was more than 200 nM.). As to `CN(C)c1cc(N[C@H]2CC[C@@H](NC(=S)NCc3cccc4ccccc34)CC2)nc2ccccc12` [compound 2287], under setting [2], the class is given as 3 (Class 3 The value of percent of control at 10^−7 M was more than 60% or the value of IC50 was more than 200 nM.).

With `C=CCOC(=O)N[C@H]1CC[C@@H](Nc2nc3c(c(N(C)C)n2)CCCC3)CC1` [compound 1590], the class under setting [3] is listed as 3 (Class 3 The value of percent of control at 10^−7 M was more than 60% or the value of IC50 was more than 200 nM.). Regarding `CN(C)c1nc(N[C@H]2CC[C@@H](CNC(=O)c3cn(Cc4ccccc4)c4ccccc34)CC2)nc2c1CCCC2` [compound 1078], the class under setting [4] is listed as 3 (Class 3 The value of percent of control at 10^−7 M was more than 60% or the value of IC50 was more than 200 nM.). With `CN(C)c1cc(N[C@H]2CC[C@@H](CNC(=O)c3ccc(Cl)cc3)CC2)nc2ccccc12` [compound 152], the class under setting [5] is 3 (Class 3 The value of percent of control at 10^−7 M was more than 60% or the value of IC50 was more than 200 nM.). For the compound `COc1ccc(CC(=O)NC[C@H]2CC[C@@H](Nc3cc(N(C)C)c4ccccc4n3)CC2)cc1` [compound 196], the class under setting [5] is recorded as 3 (Class 3 The value of percent of control at 10^−7 M was more than 60% or the value of IC50 was more than 200 nM.).

`COc1cccc(OCC(=O)N[C@H]2CC[C@@H](Nc3cc(C)c4ccccc4n3)CC2)c1` [Example 2554, 2-(3-methoxyphenoxy)-N-{cis-4-[(4-methylquinolin-2-yl)amino]cyclohexyl}acetamide]: the class worked out at 1. `CN(C)c1nc(N[C@H]2CC[C@@H](NC(=O)Nc3ccc(F)c(F)c3)CC2)nc2c1CCCC2` [compound 1803]: the class under setting [1] is on record as 3 (Class 3 The value of percent of control at 10^−7 M was more than 60% or the value of IC50 was more than 200 nM.). Consider `CN(C)c1nc(NC2CCC(CNC(=O)OCc3ccccc3)CC2)nc2c1CCCC2` (stereo not shown) [compound 1611], for which the class under setting [3] was 3 (Class 3 The value of percent of control at 10^−7 M was more than 60% or the value of IC50 was more than 200 nM.). In the case of `Cc1c(Cl)cccc1NC(=O)NC[C@H]1CC[C@@H](Nc2nccc(N(C)C)n2)CC1` [compound 2431, N-(3-chloro-2-methylphenyl)-N′-[(cis-4-{[4-(dimethylamino)pyrimidin-2-yl]amino}cyclohexyl)methyl]urea], the class under setting [2] is listed as 1 (Class 1: The value of percent of control at 10^−7 M was less than 40% or the value of IC50 was less than 50 nM.). In the case of `CN(C)c1nc(N[C@H]2CC[C@@H](CNCCc3ccc(Br)cc3)CC2)nc2c1CCCC2` [compound 1498], the class under setting [1] was 3 (Class 3 The value of percent of control at 10^−7 M was more than 60% or the value of IC50 was more than 200 nM.). Same read-out and setting: as for `CN(C)c1nc(N[C@H]2CC[C@@H](NC(=O)Nc3cccc(SC(F)(F)F)c3)CC2)nc2c1CCCC2` [compound 1866], the figure is 3 (Class 3 The value of percent of control at 10^−7 M was more than 60% or the value of IC50 was more than 200 nM.); as for `COc1cc(OC)cc(C(=O)NC[C@H]2CC[C@@H](Nc3nc4c(c(N(C)C)n3)CCCC4)CC2)c1` [compound 638], 3 (Class 3 The value of percent of control at 10^−7 M was more than 60% or the value of IC50 was more than 200 nM.); as for `CN(C)c1cc(N[C@H]2CC[C@@H](NC(=O)COc3c(Cl)cc(Cl)cc3Cl)CC2)nc2ccccc12` [compound 747], 2 (Class 2: The value of percent of control at 10^−7 M was from 40% to 60% or the value of IC′50 was from 50 nM to 200 nM.). Take `Cc1cnc(N[C@H]2CC[C@@H](NC(=O)c3ccc(C(F)(F)F)cc3)CC2)nc1N(C)C` [compound 2912, N-(cis-4-{[4-(dimethylamino)-5-methylpyrimidin-2-yl]amino}cyclohexyl)-4-(trifluoromethyl)benzamide]: under setting [6], the class is listed as 1 (Class 1: The value of percent of control at 10^−7 M was less than 40% or the value of IC50 was less than 50 nM.).

Consider `CN(C)c1cc(N[C@H]2CC[C@@H](NC(=O)Cc3cccs3)CC2)nc2ccccc12` [compound 53], for which the class under setting [5] is reported as 3 (Class 3 The value of percent of control at 10^−7 M was more than 60% or the value of IC50 was more than 200 nM.). For `CN(C)c1ccnc(N[C@H]2CC[C@@H](CNC(=O)OCC(C)(C)C)CC2)n1` [compound 1640], the class under setting [3] is reported as 3 (Class 3 The value of percent of control at 10^−7 M was more than 60% or the value of IC50 was more than 200 nM.). On to `Cc1cc(Br)ccc1NC(=S)N[C@H]1CC[C@@H](Nc2cc(N(C)C)c3ccccc3n2)CC1` [compound 2284], for which the class under setting [1] is reported as 2 (Class 2: The value of percent of control at 10^−7 M was from 40% to 60% or the value of IC′50 was from 50 nM to 200 nM.). On the same count and under the same terms, as for `CC(C(=O)N[C@H]1CC[C@@H](Nc2cc(N(C)C)c3ccccc3n2)CC1)c1ccc(-c2ccccc2)c(F)c1` (relative stereo) [compound 708], the figure is 3 (Class 3 The value of percent of control at 10^−7 M was more than 60% or the value of IC50 was more than 200 nM.); as for `CN(C)c1nc(N[C@H]2CC[C@@H](NC(=O)c3ccc(I)o3)CC2)nc2c1CCCC2` [compound 956], 1 (Class 1: The value of percent of control at 10^−7 M was less than 40% or the value of IC50 was less than 50 nM.). Same read-out and setting: as for `COc1cc(CNC[C@H]2CC[C@@H](Nc3nc4c(c(N(C)C)n3)CCCC4)CC2)cc2c1OCO2` [compound 1430], the figure is 2 (Class 2: The value of percent of control at 10^−7 M was from 40% to 60% or the value of IC′50 was from 50 nM to 200 nM.). `COc1cc([N+](=O)[O-])ccc1NC(=S)N[C@H]1CC[C@@H](Nc2nc3c(c(N(C)C)n2)CCCC3)CC1` [compound 1749]: the class under setting [1] is reported as 3 (Class 3 The value of percent of control at 10^−7 M was more than 60% or the value of IC50 was more than 200 nM.). On the same count and under the same terms, as for `CN(C)c1ccnc(N[C@H]2CC[C@@H](NCc3cccc4ccccc34)CC2)n1` [compound 1240], the figure is 3 (Class 3 The value of percent of control at 10^−7 M was more than 60% or the value of IC50 was more than 200 nM.); as for `COc1cc(Br)c(CNC[C@H]2CC[C@@H](Nc3nc4c(c(N(C)C)n3)CCCC4)CC2)cc1OC` [compound 1433], 3 (Class 3 The value of percent of control at 10^−7 M was more than 60% or the value of IC50 was more than 200 nM.); as for `Cc1ccc(NC(=S)N[C@H]2CC[C@@H](Nc3nc4c(c(N(C)C)n3)CCCC4)CC2)c(C)c1` [compound 1756], 2 (Class 2: The value of percent of control at 10^−7 M was from 40% to 60% or the value of IC′50 was from 50 nM to 200 nM.). With `Cc1onc(-c2ccccc2)c1NC(=O)N[C@H]1CC[C@@H](Nc2nc3c(c(N(C)C)n2)CCCC3)CC1` [compound 1736], the class under setting [1] was 1 (Class 1: The value of percent of control at 10^−7 M was less than 40% or the value of IC50 was less than 50 nM.).

As to `Cc1cccc(C(=O)N[C@H]2CC[C@@H](Nc3cc(N(C)C)c4ccccc4n3)CC2)c1N` [compound 783], the class under setting [1] is on record as 3 (Class 3 The value of percent of control at 10^−7 M was more than 60% or the value of IC50 was more than 200 nM.).

Consider `Cc1ccccc1CNC[C@H]1CC[C@@H](Nc2cc(N(C)C)c3ccccc3n2)CC1` [compound 1185], for which the class under setting [1] is 3 (Class 3 The value of percent of control at 10^−7 M was more than 60% or the value of IC50 was more than 200 nM.).

On to `CN(C)c1ccnc(N[C@H]2CC[C@@H](NC(=O)COc3c(F)c(F)c(F)c(F)c3F)CC2)n1` [compound 340, N-(cis-4-{[4-(dimethylamino)pyrimidin-2-yl]amino}cyclohexyl)-2-(pentafluorophenoxy)acetamide], for which the class under setting [1] is 2 (Class 2: The value of percent of control at 10^−7 M was from 40% to 60% or the value of IC′50 was from 50 nM to 200 nM.). Take `COc1ccc(CN[C@H]2CC[C@@H](Nc3nccc(N(C)C)n3)CC2)c2ccccc12` [compound 1209]: under setting [1], the class is 3 (Class 3 The value of percent of control at 10^−7 M was more than 60% or the value of IC50 was more than 200 nM.).

Regarding `CN(C)c1nc(N[C@H]2CC[C@@H](NC(=O)OCc3ccccc3Cl)CC2)nc2c1CCCC2` [compound 1596], the class under setting [3] is 3 (Class 3 The value of percent of control at 10^−7 M was more than 60% or the value of IC50 was more than 200 nM.). Turning to `CCCCc1ccc(NC(=S)N[C@H]2CC[C@@H](Nc3nccc(N(C)C)n3)CC2)c(C)c1` [compound 2358], the class under setting [2] was 3 (Class 3 The value of percent of control at 10^−7 M was more than 60% or the value of IC50 was more than 200 nM.). Turning to `CN(C)c1ccnc(N[C@H]2CC[C@@H](NC(=O)c3ccc(F)cc3F)CC2)n1` [compound 344], the class under setting [1] is on record as 3 (Class 3 The value of percent of control at 10^−7 M was more than 60% or the value of IC50 was more than 200 nM.).

For `CCCCNC(=O)N[C@H]1CC[C@@H](Nc2nc3c(c(N(C)C)n2)CCCC3)CC1` [compound 1695], the class under setting [3] is 3 (Class 3 The value of percent of control at 10^−7 M was more than 60% or the value of IC50 was more than 200 nM.).

On to `C[C@@H](c1ccccc1)N(C(=O)c1ccccc1C(=O)N[C@H]1CC[C@@H](Nc2nccc(N(C)C)n2)CC1)[C@@H](C)c1ccccc1` [compound 879, N′-(cis-4-{[4-(dimethylamino)pyrimidin-2-yl]amino}cyclohexyl)-N,N-bis[(1S)-1-phenylethyl]phthalamide], for which the class under setting [1] is 1 (Class 1: The value of percent of control at 10^−7 M was less than 40% or the value of IC50 was less than 50 nM.). On to `Cc1cc(C(=O)N[C@H]2CC[C@@H](Nc3nc(C)c(C)c(N(C)C)n3)CC2)ccc1Br` [compound 2852, 4-bromo-N-(cis-4-{[4-(dimethylamino)-5,6-dimethylpyrimidin-2-yl]amino}cyclohexyl)-3-methylbenzamide], for which the class under setting [6] is given as 1 (Class 1: The value of percent of control at 10^−7 M was less than 40% or the value of IC50 was less than 50 nM.).

For `CN(C)c1cc(N[C@H]2CC[C@@H](CNCc3ccc(O)cc3)CC2)nc2ccccc12` [compound 1154], under setting [4], the class is 3 (Class 3 The value of percent of control at 10^−7 M was more than 60% or the value of IC50 was more than 200 nM.).

Source of the values: patent US20050197350A1, “Novel quinoline, tetrahydroquinazoline, and pyrimidine derivatives and methods of treatment related to the use thereof” (TAISHO PHARMACEUTICAL CO., LTD., priority 2003, published 2005).
